Reference: patent US8410094B2, “Amide compounds, their pharmaceutical compositions, their preparation method and their uses” (Shanghai Institute of Materia Medica, Chinese Academy of …, priority 2008, dated 2013)
pIC50: −log10 of the molar value.

Target: T1, CCR5 (Homo sapiens, UniProt P51681)
T1 construct: expressed in transfected cells
Experiment: Inhibition of CCR5: [35S]GTPγS binding assays (filtration, SPA-WGA) and calcium influx assay, 10 nM RANTES, CHO-CCR5
Format: biochemical
Settings: for pIC50: inhibition of GTPγS binding induced by 10 nM RANTES, CHO-CCR5
Procedure: CCR5 belongs to G-Protein-Coupled Receptor (GPCR) family. The developing technology of GPCR-based drugs have been well-developed, among them, the experimental techniques such as ligand-receptor binding assay, GTPγS binding assay and Ca^2+ flux assay have been widely used in drug-screening related to chemokine receptors. The inhibitory activities of the compounds according to the present invention against CCR5 are measured by three methods, i.e., [^35S]GTPγS filter binding assay, SPA-WGA-based [^35S]GTPγS binding assay and calcium influx assay. At the same time, the antiviral activities in cell of the compounds according to the present invention are evaluated by using two kinds HIV-1 subtypes: H4DA5 cell model and PBMC system virus replication model.
A. [^35S]GTPγS Binding Assay
After binding with an agonist, CCR5 experiences a conformation change such that CCR5 interacts with G protein so as to active the G protein. G protein is a tripolymer composed of α-subunit and βγ-subunit. Since the ability of α-subunit binding to GTP depends on the interaction of CCR5 with the agonist, the ability of an agonist for activating CCR5 can be reflected by determining the amount of GTP binding to α-subunit. In a GTPγS binding assay, a ^35S-labeled GTP analogue GTPγS, which can bind with an activated α-subunit without being hydrolyzed, is used to replace GTP in order for eliminating the defect that the amount of GTP binding to G protein can not exactly reflect the activation of CCR5 due to the hydrolysis of GTO by GTPase and for convenience of detection. So, α-subunit binds with GDP when CCR5 is not activated, and after the activation of CCR5, α-subunit binds with GTPγS such that GTPγS irreversible binds to α-subunit. Therefore, the amount of [^35S]-GTPγS binding to α-subunit could reflect the level of CCR5 activated by an agonist. The ability of the agonist for activating CCR5 will decrease when an antagonist is added.
Such experiment has been referred to as GTPγS filtration assay in which [^35S]-GTPγS bound with the free G protein could be separated by membrane filtration.
Alternatively, SPA (Scintillation Proximity Assay) technique can be used to detect the [^35S]-GTPγS bound to G protein, which is called SPA-WGA-based [35S]GTPγS binding assay. The principle of SPA technique is as follows. Sub-atomic particles released during the decay of radioactive atoms, for example β-ray (electron), can excite microspheres at a sufficiently close distance to emit light so as to be detected by a Scintillation Counter. In an aqueous solution, most of the energy of these rays is absorbed by the solvent, and the traveling distance of these rays is limited.
The activation of G protein by CCR5 is determined by the following experiments.
CHO (Chinese hamster ovary cell) permanent cell line expressing CCR5 (CHO-CCR5) (a cell line constructed by Shanghai Targetdrug Ltd.) was lysed with a lysis buffer (5 mM Tris-HCl, pH 7.5, 5 mM EDTA and 5 mM EGTA) and then centrifugated at 15,000×g for 10 min to obtain cell membrane. After the cell membrane was resuspended in a reaction buffer (5 mM Tris-HCl, pH 7.5, 5 mM MgCl2, 1 mM EGTA, 100 mM NaCl), the protein concentration was determined using Bioford Protein Assay Kit manufactured by Bio-Rad Laboratories Inc. Subsequently, GTPγS binding assay was performed in the reaction buffer, wherein the reaction system was 100 μL containing 10 μg membrane protein, 40 μM GDP and 0.5 nM [^35S]-GTPγS (1200 Ci/mmol). After the compound to be tested (the compound was first dissolved in DMSO and then diluted in gradient with the reaction buffer according to the specific situation, wherein the final concentration of DMSO was 1% (v/v) in the whole reaction system) was added and shaken to mix homogeneously, the reaction tube was incubated at 30° C. for 1 hour. After the reaction finished, the tube was placed on ice, and the reaction mixture was diluted with PBS to quench the reaction and filtered under reduced pressure with a GF/C filter membrane. […]

T1 sequence (P51681 whole entry): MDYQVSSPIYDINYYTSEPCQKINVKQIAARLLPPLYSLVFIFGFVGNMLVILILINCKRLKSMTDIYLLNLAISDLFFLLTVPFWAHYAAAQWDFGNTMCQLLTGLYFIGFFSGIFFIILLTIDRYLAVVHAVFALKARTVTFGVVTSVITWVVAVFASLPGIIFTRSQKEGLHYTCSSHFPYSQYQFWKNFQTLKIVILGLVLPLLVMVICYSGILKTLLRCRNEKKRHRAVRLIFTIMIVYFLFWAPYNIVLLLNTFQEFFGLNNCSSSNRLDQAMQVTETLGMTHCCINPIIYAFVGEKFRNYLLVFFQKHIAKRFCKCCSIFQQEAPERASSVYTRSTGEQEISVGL

Compound	pIC50	inhibition at 0.03 µM (read-out: inhibition against CCR5 @30 nM) [%]	inhibition at 0.3 µM (read-out: inhibition against CCR5 @300 nM) [%]
1-acetyl-N-(3-chloro-4-methylphenyl)-N-(3-(3-exo-(2-(4-(pyrrolidine-1-sulfonyl)phenyl)acetamido)-8-azabicyclo[3.2.1]oct-8-yl)propyl)-4-piperidinylcarboxamide [Compound 7i]	8.53		
CC(=O)N1CCC(C(=O)N(CCCN2C3CCC2CC(NC(=O)Cc2ccccc2)C3)c2ccc(C)c(Cl)c2)CC1 (stereo not drawn) [Compound 7a, 1-acetyl-N-(3-chloro-4-methylphenyl)-N-(3-(3-exo-(2-phenylacetamido)-8-azabicyclo[3.2.1]oct-8-yl)propyl)-4-piperidinylcarboxamide]		26.2	64.6
CC(=O)N1CCC(C(=O)N(CCCN2[C@@H]3CC[C@H]2C[C@H](NC(=O)Cc2ccc(F)cc2)C3)c2ccc(C)c(Cl)c2)CC1 [Compound 7b, 1-acetyl-N-(3-chloro-4-methylphenyl)-N-(3-(3-exo-(2-(4-fluorphenyl)acetamido)-8-azabicyclo[3.2.1]oct-8-yl)propyl)-4-piperidinylcarboxamide]	7.51		
CC(=O)N1CCC(C(=O)N(CCCN2[C@@H]3CC[C@H]2C[C@H](NC(=O)Cc2ccc(Cl)cc2)C3)c2ccc(C)c(Cl)c2)CC1 [Compound 7c, 1-acetyl-N-(3-chloro-4-methylphenyl)-N-(3-(3-exo-(2-(4-chlorphenyl)acetamido)-8-azabicyclo[3.2.1]oct-8-yl)propyl)-4-piperidinylcarboxamide]	7.82		
CC(=O)N1CCC(C(=O)N(CCCN2[C@@H]3CC[C@H]2C[C@H](NC(=O)Cc2ccc(C(F)(F)F)cc2)C3)c2ccc(C)c(Cl)c2)CC1 [Compound 7d, 1-acetyl-N-(3-chloro-4-methylphenyl)-N-(3-(3-exo-(2-(4-(trifluoromethyl)phenyl)acetamido)-8-azabicyclo[3.2.1]oct-8-yl)propyl)-4-piperidinylcarboxamide]	7.31		
CC(=O)N1CCC(C(=O)N(CCCN2C3CCC2CC(NC(=O)CC24CC5CC(CC(C5)C2)C4)C3)c2ccc(C)c(Cl)c2)CC1 (stereo not drawn) [Compound 7e, 1-acetyl-N-(3-chloro-4-methylphenyl)-N-(3-(3-exo-(2-(1-adamantyl)acetamido)-8-azabicyclo[3.2.1]oct-8-yl)propyl)-4-piperidinylcarboxamide]	6.68		
CC(=O)N1CCC(C(=O)N(CCCN2[C@@H]3CC[C@H]2C[C@H](NC(=O)Cc2ccc([N+](=O)[O-])cc2)C3)c2ccc(C)c(Cl)c2)CC1 [Compound 7f, 1-acetyl-N-(3-chloro-4-methylphenyl)-N-(3-(3-exo-(2-(4-nitrophenyl)acetamido)-8-azabicyclo[3.2.1]oct-8-yl)propyl)-4-piperidinylcarboxamide]	7.70		
CC(=O)N1CCC(C(=O)N(CCCN2[C@@H]3CC[C@H]2C[C@H](NC(=O)Cc2ccc(O)cc2)C3)c2ccc(C)c(Cl)c2)CC1 [Compound 7g, 1-acetyl-N-(3-chloro-4-methylphenyl)-N-(3-(3-exo-(2-(4-hydroxyphenyl)acetamido)-8-azabicyclo[3.2.1]oct-8-yl)propyl)-4-piperidinylcarboxamide]	7.32		
CC(=O)N1CCC(C(=O)N(CCCN2[C@@H]3CC[C@H]2C[C@H](NC(=O)Cc2ccc(Cl)c(Cl)c2)C3)c2ccc(C)c(Cl)c2)CC1 [Compound 7h, 1-acetyl-N-(3-chloro-4-methylphenyl)-N-(3-(3-exo-(2-(3,4-dichlorophenyl)acetamido)-8-azabicyclo[3.2.1]oct-8-yl)propyl)-4-piperidinylcarboxamide]	8.31		
CC(=O)N1CCC(C(=O)N(CCCN2[C@@H]3CC[C@H]2C[C@H](NC(=O)Cc2ccc(S(=O)(=O)N(C)C)cc2)C3)c2ccc(C)c(Cl)c2)CC1 [Compound 7j, 1-acetyl-N-(3-chloro-4-methylphenyl)-N-(3-(3-exo-(2-(4-(N,N-dimethylsulphonyl)phenyl)acetamido)-8-azadicyclo[3.2.1]oct-8-yl)propyl)-4-piperidinylcarboxamide]	8.51		
CC(=O)N1CCC(C(=O)N(CCCN2[C@@H]3CC[C@H]2C[C@H](NC(=O)Cc2ccc(S(C)(=O)=O)cc2)C3)c2ccc(C)c(Cl)c2)CC1 [Compound 7k, 1-acetyl-N-(3-chloro-4-methylphenyl)-N-(3-(3-exo-(2-(4-(methylsulphonyl)phenyl)acetamido)-8-azabicyclo[3.2.1]oct-8-yl)propyl)-4-piperidinylcarboxamide]	7.94		
CC(=O)N1CCC(C(=O)N(CCCN2[C@@H]3CC[C@H]2C[C@H](NC(=O)Cc2ccc(S(=O)(=O)N4CCOCC4)cc2)C3)c2ccc(C)c(Cl)c2)CC1 [Compound 7l, 1-acetyl-N-(3-chloro-4-methylphenyl)-N-(3-(3-exo-(2-(4-(morpholinosulfonyl)phenyl)acetamido)-8-azabicyclo[3.2.1]oct-8-yl)propyl)-4-piperidinylcarboxamide]	8.46		
CC(=O)N1CCC(C(=O)N(CCCN2[C@@H]3CC[C@H]2C[C@H](NC(=O)Cc2ccc(S(=O)(=O)NC(C)(C)C)cc2)C3)c2ccc(C)c(Cl)c2)CC1 [Compound 7m, 1-acetyl-N-(3-(3-exo-(2-(4-(N-tert-butylsulphonyl)phenyl)acetamido)-8-azabicyclo[3.2.1]oct-8-yl)propyl)-N-(3-chloro-4-methylphenyl)-4-piperidinylcarboxamide]	8.12		
CC(=O)N1CCC(C(=O)N(CCCN2[C@@H]3CC[C@H]2C[C@H](NC(=O)Cc2cccc4ccccc24)C3)c2ccc(C)c(Cl)c2)CC1 [Compound 7n, 1-acetyl-N-(3-chloro-4-methylphenyl)-N-(3-(3-exo-(2-(1-naphthyl)acetamido)-8-azabicyclo[3.2.1]oct-8-yl)propyl)-4-piperidinylcarboxamide]	8.32		
CC(=O)N1CCC(C(=O)N(CCCN2[C@@H]3CC[C@H]2C[C@H](NC(=O)Cc2ccc4ccccc4c2)C3)c2ccc(C)c(Cl)c2)CC1 [Compound 7o, 1-acetyl-N-(3-chloro-4-methylphenyl)-N-(3-(3-exo-(2-(2-naphthyl)acetamido)-8-azabicyclo[3.2.1]-oct-8-yl)propyl)-4-piperidinylcarboxamide]	6.16		
CC(=O)N1CCC(C(=O)N(CCCN2C3CCC2CC(NC(=O)C(O)c2ccccc2)C3)c2ccc(C)c(Cl)c2)CC1 (stereo not drawn) [Compound 7p, 1-acetyl-N-(3-chloro-4-methylphenyl)-N-(3-(3-exo-(2-hydroxyl-2-phenylacetamido)-8-azabicyclo[3.2.1]oct-8-yl)propyl)-4-piperidinylcarboxamide]	7.29		
CC(=O)N1CCC(C(=O)N(CCCN2[C@@H]3CC[C@H]2C[C@H](NC(=O)Cc2c[nH]c4ccccc24)C3)c2ccc(C)c(Cl)c2)CC1 [Compound 7q, N-(3-(3-exo-(2-(3-indolyl)acetamido)-8-azabicyclo[3.2.1]oct-8-yl)propyl)-1-acetyl-N-(3-chloro-4-methylphenyl)-4-piperidinylcarboxamide]	7.09		
COc1cc(CC(=O)N[C@@H]2C[C@H]3CC[C@@H](C2)N3CCCN(C(=O)C2CCN(C(C)=O)CC2)c2ccc(C)c(Cl)c2)cc(OC)c1OC [Compound 7r, 1-acetyl-N-(3-chloro-4-methylphenyl)-N-(3-(3-exo-(2-(3,4,5-trimethoxylphenyl)acetamido)-8-azabicyclo[3.2.1]oct-8-yl)propyl)-4-piperidinylcarboxamide]	7.69		
CC(=O)N1CCC(C(=O)N(CCCN2[C@@H]3CC[C@H]2C[C@H](NC(=O)Cc2ccc([N+](=O)[O-])c4ccccc24)C3)c2ccc(C)c(Cl)c2)CC1 [Compound 7s, 1-acetyl-N-(3-chloro-4-methylphenyl)-N-(3-(3-exo-(2-(4-nitro-1-naphthyl)acetamido)-8-azabicyclo[3.2.1]oct-8-yl)propyl)-4-piperidinylcarboxamide]	8.48		
